Values joined by “and” are separate entries in the source; they are usually repeats but may differ in a detail not shown here. Equal entries are not always repeated.
Tested on: naive mice
Assay: Hot water tail immersion (tail-flick) test
Assay type: in vivo, mouse
Settings: for tail-flick time, individual mice: water of 49°C, hr 1, male and female
Method: To compare pain-relevant vocalizations, only short and constant USVs of 37 kHz were counted […]
Tail-Flick immersion test
Naïve wildtype male and female mice (10 weeks of age) were habituated to handling and experimental set up for one week prior to data collection. On the day of data collection, a baseline measurement was performed prior to injection of compounds. One measurement consisted of immersion of 2/3rds of the tail in water (49 °C) for maximum ten seconds, three times with an interval of ten seconds between each measurement using the mean of the three measurements. After baseline, mice were injected s.c. with mPD5 10 μmol/kg mPD5, 10 mg/kg morphine (RH Pharmacy, Denmark, Vnr. 475249), or sterile PBS one hour before undergoing the tail-flick hot water immersion assay again.
Mice were pretreated with 10 μmol/kg mPD5, 10 mg/kg morphine (RH Pharmacy, Denmark, Vnr. 475249), or PBS 45 min before habituation to observation container (glass cylinder surrounded by mirrors on 2 sides) for 15 min. Mice then received an intraplantar injection of 20 µl capsaicin (1.6 ug/paw) (sigma CAS Number:404-86-4, diluted with 1:1:8 solution of tween-20, 70% ethanol, and MilliQ water) in one hind paw and were reintroduced to the observation container. Mice were recorded for three min after i.pl. injection with capsaicin and euthanized the same day. Mice were scored manually for the amount of time spent paw licking within three min after capsaicin administration.
Mice were 10 weeks old at the beginning of the experiment and acclimatized to the animal facility for two weeks after arrival. Male mice were randomized into two groups (n = 8/group) and weighed and injected s.c. once daily (between 3 pm and 4 pm) for 14 days with sterile PBS or 10 μmol/kg mPD5 (diluted in sterile PBS and pH adjusted to 7.4). After 14 days of dosing, the males were paired with female mice in fresh cages, and the number of pubs counted for 35 days (males were removed from the breeding cages after 14 days). Following the 14 days mating period, males were sacrificed by cervical dislocation caudae epidymidis were removed and weighed. Caudae epidymidis were cut into smaller pieces in 2 mL PBS (37 °C) and incubated (37 °C, 5% CO2) for 15 min. Following incubation, the mix was swirled gently, and 0.5 mL of the liquid was transferred to room tempered PBS to achieve a final volume of 1 mL.
Subsequently, sperm count was determined by transferring 50 µL of the sample to a hemocytometer, and each sample was determined in duplicate by an experimenter blinded to drug treatment. Following criteria were assessed: mobility (forward and circular), local tail mobility and total number. Females were weighed on a regular basis from removal of the males […]
Unless otherwise stated, all data were analysed using GraphPad Prism 9.4.1. and presented as mean +-SEM with the significance level set to p < 0.05. For locomotion and elevated plus maze, Ethovision XT 13 (Noldus) was used to track the distance travelled by each animal. For within group analysis (i.e., von Frey experiments), two-way ANOVA followed by Dunnett’s post hoc test was used. For between group analysis of multiple time points (i.e., locomotion experiments), two-way ANOVA was used without post hoc test due to lack of treatment significance in the ANOVA test. For the limb use experiment, data pre versus post treatment was analysed with a Kruskal Wallis test due to the non-parametric nature of the data. […]

CN1CC[C@]23c4c5ccc(O)c4O[C@H]2[C@@H](O)C=C[C@H]3[C@H]1C5 [morphine]
tail-flick time, individual mice (10 mg/kg, female mice): 10
tail-flick time, individual mice (10 mg/kg, male mice): 10 (2×) and 6 and 7

CCCCCCCCCCCCCC(=O)N(CCOCCOCCC(=O)N[C@@H](Cc1c[nH]cn1)C(=O)N[C@@H](Cc1c[nH]c2ccccc12)C(=O)N[C@@H](CC(C)C)C(=O)N[C@@H](CCCCN)C(=O)N[C@H](C(=O)O)C(C)C)CCOCCOCCC(=O)N[C@@H](Cc1c[nH]cn1)C(=O)N[C@@H](Cc1c[nH]c2ccccc12)C(=O)N[C@@H](CC(C)C)C(=O)N[C@@H](CCCCN)C(=O)N[C@H](C(=O)O)C(C)C [mPD5, myristoyl-NPEG4-(HWLKV)2]
effect on tail-flick latency compared with baseline (naive mice, both sexes, s.c. 10 μmol/kg): no effect on tail-flick latency
tail-flick time, individual mice (10 umol/kg, female mice): 3 and 4 (2×) and 5
tail-flick time, individual mice (10 umol/kg, male mice): 3 (2×) and 2 and 4

Source: paper PMC11530130, “Peripherally restricted PICK1 inhibitor mPD5 ameliorates pain behaviors in murine inflammatory and neuropathic pain models” (JCI Insight, 2024)
